How the values were obtained:
BMMCs = assay: MTT assay, inhibition of the growth of BMMCs (cell toxicity); assay type: cell-based; conditions: 10 μM
Protocol: (§1) (1) Experimental Animal: a 6-week-old female Balb/C mouse without specific pathogens.
(§2) (2) Extraction Process: the mouse was sacrificed by cervical dislocation. After confirming the death of the mouse, it was immersed in alcohol for 3-5 minutes. The back skin of the mouse was cut with tweezers and scissors on a clean bench. The spleen was removed and placed in a filter. The filter was placed in a petri dish containing serum-free medium. The spleen was grounded into a cell suspension having a cell concentration of 2×10^6 cells/mL. […] of lectins was added, and cell suspension was then cultured in RPMI1640 medium for 5 days. The supernatant was collected. The femur bone of the mouse was removed, and joints of the bone was cut. The bone marrow was washed into a centrifuging tube by using serum-free medium. The bone marrow containing medium was then centrifuged, and the supernatant was discarded and the pellet was red bone marrow.
(§3) (3) Cell Culture: The cells were cultured for 4 weeks with RPMI1640, 10% Gibco FBS, 20% spleen supernatant, 1% AEPS, 1% MEM, and 1% double antibody.
(1) Preparation of MTT Solution: 5 mg/mL MTT solution was prepared by weighing an amount of MTT ((2-(4,5-dimethyl-2-thiazolyl)-3,5-diphenyl-2H-[…]) and dissolving MMT in PBS (solvent), and the solution was then filtered using a 0.22 μm microporous membrane. The solution was light yellow and stored at −20° C.
(2) Method: BMMCs were seeded in 96-well plates at a density of 2×10^5/mL at 100 μL per well, and the compounds of different concentrations were added. 100 μL culture medium and 100 μL PBS were used as blank control. After 7 hours, 20 μL MMT (5 mg/mL) was added to each well. The plates were then placed in an incubator (5% CO2, 37° C.) for 4 hours. After the reaction was complete, the supernatant was discarded, and 150 μL of DMSO was added to each well. After mixing, the absorbance (OD value) was measured at 490 nm using a microplate reader. Cell Viability=(ODcompounds−ODculture medium)/(ODPBS−ODculture medium)×100%

[1] = tested on: Leukotriene C4 (LTC4) production in mouse bone marrow-derived mast cells (BMMCs); assay: Inhibition of LTC4 production/release by IgE/DNP-HSA-stimulated BMMCs (ELISA); assay type: cell-based; conditions: 10 μM
Protocol: as §1, §2, §3
Principle: This experiment is based on the competitive binding of LTC4 to the LTC4-acetylcholinesterase conjugate (LTC4 tracer) to determine the amount of […]. Because the concentration of the LTC4 tracer is constant and the concentration of LTC4 is varied, the amount of LTC4 tracer bound to the LTC4 antiserum is inversely proportional to the amount of LTC4. The antibody-LTC4 complex binds to the murine monoclonal anti-rabbit IgG, while the murine monoclonal anti-rabbit IgG has previously been conjugated to the kit. After the reaction system was stabilized, the unbound reagent was washed away. Ellman's reagent (a […]) was added. […] The color depth was measured by the spectrophotometric method, and is proportional to the amount of LTC4 tracer, which is inversely proportional to the amount of LTC4.
(a) Sample Preparation: culturing mature BMMCs, adding IgE overnight, washing with PBS three times, and then spreading in 96-well plates (1×10^6 cells/well). The test compound solutions were added to plates and the plates were incubated for 1-1.5 hours, stimulating with DNP-HSA for 15 min. The solutions were then centrifuged at 3000 rpm for 3 min at 4° C., and the supernatant was collected and diluted 5-fold with RPMI 1640 to obtain sample solution.
(b) ELISA Kit Reaction: Adding reagents according to the kit instructions, reacting at 4° C. for 18 h, and washing with washing buffer. 200 μL of Ellman's reagent was added to each well, reacting for 40 min.
(c) Measurement of Absorbance: The absorbance was measured at 405 nm.

SMILES	Cell Toxicity (%) (BMMCs)	Inhabitation Rate (%) [1]
C=C1C(=O)O[C@@H]2CC(C)=C([C@@H](C)CCCOC(C)=O)[C@H](O)[C@H]12 [ABL, 1-O-acetylbritannilatone]	1.15%	35.21%
CC(=O)OCCCC(C)C1=C(C)CC2OC(=O)C3(CC(c4ccccc4)=NO3)C2C1O (centres unmarked) [Compound 2a]	5.98%	69.36%
CC(=O)OCCCC(C)C1=C(C)CC2OC(=O)C3(CC(c4ccc(F)cc4)=NO3)C2C1O (centres unmarked) [Compound 2b]	1.47%	77.46%
CC(=O)OCCCC(C)C1=C(C)CC2OC(=O)C3(CC(c4ccc(Cl)cc4)=NO3)C2C1O (centres unmarked) [Compound 2c]	1.88%	67.43%
CC(=O)OCCCC(C)C1=C(C)CC2OC(=O)C3(CC(c4ccc(Br)cc4)=NO3)C2C1O (centres unmarked) [Compound 2d]	1.06%	50.4%
CC(=O)OCCCC(C)C1=C(C)CC2OC(=O)C3(CC(c4ccc(C#N)cc4)=NO3)C2C1O (centres unmarked) [Compound 2e]	−0.66%	85.49%
CC(=O)OCCCC(C)C1=C(C)CC2OC(=O)C3(CC(c4ccc(C)cc4)=NO3)C2C1O (centres unmarked) [Compound 2f]	−1.06%	−32.88%
COc1ccc(C2=NOC3(C2)C(=O)OC2CC(C)=C(C(C)CCCOC(C)=O)C(O)C23)cc1 (centres unmarked) [Compound 2g]	7.37%	0.91%
CC(=O)OCCCC(C)C1=C(C)CC2OC(=O)C3(CC(c4ccc([N+](=O)[O-])cc4)=NO3)C2C1O (centres unmarked) [Compound 2h]	20.64%	87.14%
CC(=O)OCCCC(C)C1=C(C)CC2OC(=O)C3(CC(c4ccncc4)=NO3)C2C1O (centres unmarked) [Compound 2i]	4.26%	84.84%
CC(=O)OCCCC(C)C1=C(C)CC2OC(=O)C3(CC(c4ccc(O)cc4)=NO3)C2C1O (centres unmarked) [Compound 2j]	−0.9%	74.36%
CC(=O)OCCCC(C)C1=C(C)CC2OC(=O)C3(CC(c4ccccc4)=NO3)C2C1OC(C)=O (centres unmarked) [Compound 3a]	5.98%	79.15%
CC(=O)OCCCC(C)C1=C(C)CC2OC(=O)C3(CC(c4ccc(F)cc4)=NO3)C2C1OC(C)=O (centres unmarked) [Compound 3b]	−1.97%	89.01%
CC(=O)OCCCC(C)C1=C(C)CC2OC(=O)C3(CC(c4ccc(Cl)cc4)=NO3)C2C1OC(C)=O (centres unmarked) [Compound 3c]	−6.22%	70.16%
CC(=O)OCCCC(C)C1=C(C)CC2OC(=O)C3(CC(c4ccc(Br)cc4)=NO3)C2C1OC(C)=O (centres unmarked) [Compound 3d]	9.58%	89.94%
CC(=O)OCCCC(C)C1=C(C)CC2OC(=O)C3(CC(c4ccc(C#N)cc4)=NO3)C2C1OC(C)=O (centres unmarked) [Compound 3e]	0.25%	93.95%

SMILES	Cell Toxicity (%) (BMMCs)	Inhabitation Rate (%) [1]
CC(=O)OCCCC(C)C1=C(C)CC2OC(=O)C3(CC(c4ccc(C)cc4)=NO3)C2C1OC(C)=O (centres unmarked) [Compound 3f]	4.1%	−23.48%
COc1ccc(C2=NOC3(C2)C(=O)OC2CC(C)=C(C(C)CCCOC(C)=O)C(OC(C)=O)C23)cc1 (centres unmarked) [Compound 3g]	11.12%	93.19%
CC(=O)OCCCC(C)C1=C(C)CC2OC(=O)C3(CC(c4ccc([N+](=O)[O-])cc4)=NO3)C2C1OC(C)=O (centres unmarked) [Compound 3h]	6.63%	84.4%
CC(=O)OCCCC(C)C1=C(C)CC2OC(=O)C3(CC(c4ccncc4)=NO3)C2C1OC(C)=O (centres unmarked) [Compound 3i]	9.58%	88.7%
CC(=O)OCCCC(C)C1=C(C)CC2OC(=O)C3(CC(c4ccc(O)cc4)=NO3)C2C1OC(C)=O (centres unmarked) [Compound 3j]	21.95%	88.7%
CC(=O)OCCCC(C)C1=C(C)CC2OC(=O)C3(CC(c4ccccc4)=NO3)C2C1=O (centres unmarked) [Compound 4a]	0.16%	21.93%
CC(=O)OCCCC(C)C1=C(C)CC2OC(=O)C3(CC(c4ccc(F)cc4)=NO3)C2C1=O (centres unmarked) [Compound 4b]	−8.44%	32%
CC(=O)OCCCC(C)C1=C(C)CC2OC(=O)C3(CC(c4ccc(Cl)cc4)=NO3)C2C1=O (centres unmarked) [Compound 4c]	2.95%	84.4%
CC(=O)OCCCC(C)C1=C(C)CC2OC(=O)C3(CC(c4ccc(Br)cc4)=NO3)C2C1=O (centres unmarked) [Compound 4d]	−4.59%	97.77%
CC(=O)OCCCC(C)C1=C(C)CC2OC(=O)C3(CC(c4ccc(C#N)cc4)=NO3)C2C1=O (centres unmarked) [Compound 4e]	3.19%	88.22%
CC(=O)OCCCC(C)C1=C(C)CC2OC(=O)C3(CC(c4ccc(C)cc4)=NO3)C2C1=O (centres unmarked) [Compound 4f]	−0.66%	28.77%
COc1ccc(C2=NOC3(C2)C(=O)OC2CC(C)=C(C(C)CCCOC(C)=O)C(=O)C23)cc1 (centres unmarked) [Compound 4g]	5.81%	53.28%
CC(=O)OCCCC(C)C1=C(C)CC2OC(=O)C3(CC(c4ccc([N+](=O)[O-])cc4)=NO3)C2C1=O (centres unmarked) [Compound 4h]	5.65%	92.79%
CC(=O)OCCCC(C)C1=C(C)CC2OC(=O)C3(CC(c4ccncc4)=NO3)C2C1=O (centres unmarked) [Compound 4i]	9.09%	83.53%
C=C1C(=O)OC2CC(C)=C(C(C)CCCOC(C)=O)C(OC(C)=O)C12 (centres unmarked) [OABL, 1,6-O,O-diacetylbritannilatone, reference compound]	3.46%	53.24%

— patent US11028102B2, “Methods of using 1-O-acetylbritannilatone spiro aryl isoxazoline compounds” (priority 2017, dated 2021)
